For nine molecules, IC50 and inhibition results are on record in patent US10093630B2, “Pyrazole compounds and methods of making and using same” (ABIDE THERAPEUTICS, INC., priority 2014, dated 2018).

A value given as a limit tells only on which side of the number the result lay.

Assay in all cases: In vitro competitive activity-based protein profiling (gel-based, FP-Rh or HT-01 probe)
Common to all, as to type: biochemical

The target of one assay is T1, FAAH (Mus musculus, UniProt O08914).
T1 construct: Proteomes (mouse brain membrane fraction or cell lysates); from tissue; host or cells: mouse brain membrane fraction (or cell lysates, not specified)
T1 sequence (O08914 1-579): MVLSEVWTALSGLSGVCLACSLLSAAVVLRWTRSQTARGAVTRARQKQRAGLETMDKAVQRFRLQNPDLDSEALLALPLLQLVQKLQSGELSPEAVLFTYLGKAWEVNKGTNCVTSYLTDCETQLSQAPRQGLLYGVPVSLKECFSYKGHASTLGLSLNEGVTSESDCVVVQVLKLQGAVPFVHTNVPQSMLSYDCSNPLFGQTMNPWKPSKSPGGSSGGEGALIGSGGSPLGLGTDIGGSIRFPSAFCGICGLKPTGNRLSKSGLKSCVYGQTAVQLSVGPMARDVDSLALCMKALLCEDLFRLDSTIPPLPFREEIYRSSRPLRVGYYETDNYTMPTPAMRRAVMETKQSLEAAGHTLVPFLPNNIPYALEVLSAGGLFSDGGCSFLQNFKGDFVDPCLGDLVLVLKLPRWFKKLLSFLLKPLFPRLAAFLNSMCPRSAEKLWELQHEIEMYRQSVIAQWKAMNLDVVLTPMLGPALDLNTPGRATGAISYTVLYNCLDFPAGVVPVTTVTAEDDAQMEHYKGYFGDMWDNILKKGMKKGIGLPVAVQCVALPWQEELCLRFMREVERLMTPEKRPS
To be noted: for IC50: mouse brain membrane fraction or cell lysates, 30 min preincubation at 37° C., read-out: Mouse (IC50 value, nM) FAAH; for inhibition at 10 µM: 10 μM inhibitor, read-out: % Inhibition at 10 μM, B = FAAH; for inhibition at 1 µM: 1 μM inhibitor, read-out: % Inhibition at 1 μM, B = FAAH. As for the experimental part: (§1) In Vitro Competitive Activity-Based Protein Profiling.
(§2) Proteomes (mouse brain membrane fraction or cell lysates) (50 μL, 1.0 mg/mL total protein concentration) were preincubated with varying concentrations of inhibitors at 37° C. After 30 min, FP-Rh or HT-01 ([…], 50 μM in DMSO) was added and the mixture was incubated for another 30 min at 37° C. Reactions were quenched with SDS loading buffer (15 μL—4×) and run on SDS-PAGE. Following gel imaging, serine hydrolase activity was determined by measuring fluorescent intensity of gel bands corresponding to MAGL, ABHD6, FAAH, and PLA2G7 using ImageJ 1.43u software.

The target in a further assay is T2, ABHD6 (Mus musculus, UniProt Q8R2Y0).
T2 construct: Proteomes (mouse brain membrane fraction or cell lysates); from tissue; host or cells: mouse brain membrane fraction (or cell lysates, not specified)
T2 sequence (Q8R2Y0 1-336): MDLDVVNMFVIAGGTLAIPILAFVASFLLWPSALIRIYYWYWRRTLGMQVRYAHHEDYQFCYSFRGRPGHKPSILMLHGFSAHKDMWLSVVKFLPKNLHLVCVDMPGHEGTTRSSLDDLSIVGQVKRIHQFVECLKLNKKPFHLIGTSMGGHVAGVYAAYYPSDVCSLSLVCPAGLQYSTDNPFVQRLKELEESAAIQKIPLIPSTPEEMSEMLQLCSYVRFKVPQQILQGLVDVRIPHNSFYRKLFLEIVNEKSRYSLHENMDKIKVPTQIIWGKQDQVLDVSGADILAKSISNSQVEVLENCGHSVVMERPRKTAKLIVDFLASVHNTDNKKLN
To be noted: for IC50: mouse brain membrane fraction or cell lysates, 30 min preincubation at 37° C., read-out: Mouse (IC50 value, nM) ABHD6; for inhibition at 10 µM: 10 μM inhibitor, read-out: % Inhibition at 10 μM, C = ABHD6; for inhibition at 1 µM: 1 μM inhibitor, read-out: % Inhibition at 1 μM, C = ABHD6. On the procedure: as §1, §2

A further assay has as its target T3, MAGL (Mus musculus, UniProt O35678).
T3 construct: Proteomes (mouse brain membrane fraction or cell lysates); from tissue; host or cells: mouse brain membrane fraction (or cell lysates, not specified)
T3 sequence (O35678 1-303): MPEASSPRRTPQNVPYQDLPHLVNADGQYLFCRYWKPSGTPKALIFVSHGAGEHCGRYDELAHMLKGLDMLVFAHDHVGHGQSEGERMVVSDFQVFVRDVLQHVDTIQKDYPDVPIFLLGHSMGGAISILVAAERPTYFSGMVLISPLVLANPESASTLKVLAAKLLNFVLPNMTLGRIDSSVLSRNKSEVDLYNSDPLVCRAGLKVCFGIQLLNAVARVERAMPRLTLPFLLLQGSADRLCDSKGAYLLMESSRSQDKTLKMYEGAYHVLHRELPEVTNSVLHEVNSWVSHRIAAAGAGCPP
The following applies: for IC50: mouse brain membrane fraction or cell lysates, 30 min preincubation at 37° C., read-out: Mouse (IC50 value, nM) MAGL; for inhibition at 10 µM: 10 μM inhibitor; for inhibition at 1 µM: 1 μM inhibitor. As for the experimental part: as §1, §2

On to `O=C(N1CCN(Cc2ccc(Cl)cc2N2CCCC2)CC1)n1cc(Cl)cn1` [Example 50, (4-Chloro-1H-pyrazol-1-yl)(4-(4-chloro-2-(pyrrolidin-1-yl)benzyl)piperazin-1-yl)methanone], for which the IC50 was 100 to 1000 nM on FAAH, below 100 nM on ABHD6 and below 100 nM on MAGL.
For the molecule `O=C(N1CCN(Cc2ccc(Cl)cc2N2CCOCC2)CC1)n1cc(Cl)cn1` [Example 47, (4-Chloro-1H-pyrazol-1-yl)(4-(4-chloro-2-morpholinobenzyl)piperazin-1-yl)methanone], the IC50 on FAAH was 100 to 1000 nM; on ABHD6, below 100 nM; at MAGL, below 100 nM.
In the case of `O=C(N1CCN(Cc2c(N3CCCC3)cccc2C(F)(F)F)CC1)n1cc(-c2ccccc2)cn1` [Example 109, (4-Phenyl-1H-pyrazol-1-yl)(4-(2-(pyrrolidin-1-yl)-6-(trifluoromethyl)benzyl)piperazin-1-yl)methanone], the inhibition at 10 µM is above 75% at FAAH, above 75% at ABHD6 and 25 to 75% on MAGL.
As to `O=C(c1cnn(C(=O)N2CCN(C(c3ccc(Cl)cc3)c3ccc(Cl)cc3)CC2)c1)N1CCC1` [Example 68, Azetidin-1-yl(1-(4-(bis(4-chlorophenyl)methyl)piperazine-1-carbonyl)-1H-pyrazol-4-yl)methanone], on FAAH, the inhibition at 1 µM was below 25%, the inhibition at 10 µM is above 75% and the IC50 is above 1000 nM. Besides, on ABHD6, the inhibition at 1 µM was above 75%, the inhibition at 10 µM was above 75% and the IC50 was in the range of 100 to 1000 nM. For the same molecule, at MAGL, the inhibition at 1 µM was above 75%, the inhibition at 10 µM was above 75% and the half-maximal inhibitory concentration (IC50) is 100 to 1000 nM.
On to `Cc1ccc(-c2cnn(C(=O)N3CCCC3)c2)cc1` [Example 104, Pyrrolidin-1-yl(4-(p-tolyl)-1H-pyrazol-1-yl)methanone], for which the inhibition at 10 µM at FAAH was above 75%; at ABHD6, above 75%; on MAGL, below 25%.
With `O=C(N1CCCC1)n1cc(-c2ccc(Cl)cc2)cn1` [Example 105, (4-(4-Chlorophenyl)-1H-pyrazol-1-yl)(pyrrolidin-1-yl)methanone], the inhibition at 10 µM on FAAH was above 75%; on ABHD6, above 75%; on MAGL it was below 25%.
For the molecule `Cc1cc(-c2ccccc2)ccc1CN1CCN(C(=O)n2cccn2)CC1` [Example 94, (4-((3-Methyl-[1,1′-biphenyl]-4-yl)methyl)piperazin-1-yl)(1H-pyrazol-1-yl)methanone], the figures for the IC50 on FAAH, on ABHD6 and at MAGL were 100 to 1000 nM, above 1000 nM and below 100 nM, respectively.
In the case of `O=C(N1CCN(Cc2ccc(C(F)(F)F)cc2N2CCCC2)CC1)n1cc(Cl)cn1` [Example 125, (4-Chloro-1H-pyrazol-1-yl)(4-(2-(pyrrolidin-1-yl)-4-(trifluoromethyl)benzyl)piperazin-1-yl)methanone], the values for the inhibition at 1 µM at FAAH, on ABHD6 and on MAGL were below 25%, above 75% and above 75%, respectively. Further, the IC50 at FAAH is above 1000 nM; on ABHD6, 100 to 1000 nM; at MAGL, below 100 nM.
In the case of `Cc1cnn(C(=O)N2CCN(Cc3c(N4CCCC4)cccc3C(F)(F)F)CC2)c1` [Example 111, (4-Methyl-1H-pyrazol-1-yl)(4-(2-(pyrrolidin-1-yl)-6-(trifluoromethyl)benzyl)piperazin-1-yl)methanone], the inhibition at 10 µM on FAAH is 25 to 75%; on ABHD6 it was above 75%; on MAGL it was above 75%. Further, the IC50 on FAAH is above 1000 nM; at ABHD6 it was 100 to 1000 nM; at MAGL, 100 to 1000 nM.

By IC50 is commonly meant the midpoint of a concentration-inhibition curve. Usually inhibition stands for the change of the read-out against control, counted positive when it falls.
